Experimental data reported in PubChem BioAssay AID1918935 (Molecular Pharmacology Branch, DTP, NCI, 2023).

Tested on: 324938-238-R-J1-PDC complex spheroid viability
Assay: Anticancer human tumor 324938-238-R-J1-PDC patient-derived bladder carcinoma cell line growth inhibition
Conditions: for IC50: curve of first compound; for viability, T/C: stronger effect = lower value
From the text: Multicellular complex tumor spheroid response to LSD1 Inhibitor Iadademstat in combination with a variety of drugs and investigational agents in selected tumor cell lines
The current study was undertaken to assess response to LSD1 inhibitors in combination with standard-of-care drugs and investigational agents in solid tumor complex spheroid models as well as in the K-562 leukemia. Complex spheroids include a stromal component modeled by human endothelial cells (HUVEC) and fibroblasts modeled by human mesenchymal stem cells (MSCs). The concentration ranges selected for each drug and investigational agent were based upon clinically achievable concentrations if the clinical Cmax of the agent was known.
Compounds. The drugs and investigational agents used in this study are listed on Table 1. All of the agents used, including staurosporine (NSC755774) and gemcitabine (NSC613327), were obtained from the Developmental Therapeutics Program, NCI. FDA-approved anticancer drugs are available from the NCI at http://dtp.nci.nih.gov/branches/dscb/oncology_drugset_explanation.html. Drugs and investigational agents were >95% pure by proton nuclear magnetic resonance (NMR) and liquid chromatography/mass spectrometry (LC/MS). Stock solutions were prepared at 400x in DMSO, stored at -70 degrees C, and diluted in fresh medium prior to their use. The final concentration of DMSO in cell culture wells never exceeded 0.25% (v/v). The FDA-approved anticancer drug set is available from the Developmental Therapeutics Program at https://dtp.cancer.gov/organization/dscb/obtaining/available_plates.htm. All drugs and investigational agents were tested over a range starting from a high concentration at or near the clinical Cmax and decreasing in half-log increments. If the clinical Cmax for an agent had not been determined, the highest concentration tested was 10 microM.
Cell Lines. The patient-derived cancer cell (PDC) lines: 292921-168-R-J2-PDC, K24384-001-R-PDC, and 521955-158-R2-J5-PDC pancreatic carcinomas, 556581-035-R-J1 ovarian carcinoma, 324938-238-R-J1-PDC, 855422-203-R-J1-PDC and 883617-216-R-J1-PDC urothelial bladder carcinomas, 743489-274-T-PDC renal cell carcinoma, 138582-R-J1 Merkel cell tumor, K60290-347-R-J1 and K57222-313-R-J1-PDC glioblastomas, 653999-131-R-J2-PDC, LG0703-F948-PDC, and 349418-098-R-PDC non-small cell lung carcinomas, 885512-296-R-J2-PDC, 171881-019-R-J1-PDC breast carcinomas and 186277-243-T-J2-PDC and 233499-124-R-J2-PDC colon carcinomas were obtained from the NCI Patient-Derived Models Repository (PDMR, https://pdmr.cancer.gov). The established cell lines NCI/ADR-RES (RRID:CVCL_14520 and OVCAR-5 (RRID:CVCL_1628) ovarian carcinomas, 786-O (RRID:CVCL_1051) and A498 (RRID:CVCL_A498) renal cell carcinoma, NCI-H211 (ATCC, cat. CRL-5824; RRID:CVCL_1529), NCI-H196 (ATCC, cat. CRL-5823, RRID:CVCL_1509), SW 1271 (ATCC, cat. CRL-2177, RRID:CVCL_1716) and NCI-H1876 (ATCC, cat. CRL-5902, RRID:CVCL_1503) small cell lung carcinomas, MDA-MB-231 (RRID:CVCL_0062) and MDA-MB-468 (RRID:CVCL_0419)breast carcinomas (10-12). Pooled donor human umbilical vein endothelial cells (HUVEC, Lonza, cat. CC-2519) and human mesenchymal stem cells (hMSC, Lonza, cat. PT-2501) were purchased from Lonza (Walkersville, MD).
Cell Culture. All cells were maintained in an incubator at 37 degrees C and 5% CO2 with 95% humidity. The PDC lines were cultured according to standard operating procedures established by the NCI PDMR (https://pdmr.cancer.gov). Briefly all PDCs were thawed and cultured in Matrigel-coated flasks prepared with a working solution of 1X Ham's F-12 nutrient mix, without supplementation (Invitrogen, Waltham, MA, cat. 11765054), 100 U/mL penicillin-streptomycin (Invitrogen, cat. 15140122), and 2.5% Matrigel (Corning Inc., Corning, NY, cat. 354248) for the first three passages. […]
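Also: spheroids also contain HUVEC and human MSCs and agents combined with iadademstat; spheroids exposed to agents for 7 days before readout.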

## COc1cc(C2c3cc4c(cc3C(OC3OC5COC(C)OC5C(O)C3O)C3COC(=O)C23)OCO4)cc(OC)c1O (stereo not given) + NC1CC1c1ccc(-c2cccc(O)c2)cc1
Second compound 0.1 µM
  IC50: 61.7 nM
Second compound 0.316 µM
  IC50: 60.3 nM
Second compound 1 µM
  IC50: 45.8 nM
Second compound 3.16 µM
  IC50: 46.5 nM
Second compound 10 µM
  IC50: 38.2 nM
Second compound 0.1 µM, first compound 0.00949 µM
  viability, T/C: 82.3%
Second compound 0.1 µM, first compound 0.03 µM
  viability, T/C: 74.6%
Second compound 0.1 µM, first compound 0.0949 µM
  viability, T/C: 35.1%
Second compound 0.1 µM, first compound 0.3 µM
  viability, T/C: 18.9%
Second compound 0.1 µM, first compound 0.949 µM
  viability, T/C: 20.9%
Second compound 0.1 µM, first compound 3 µM
  viability, T/C: 10.6%
Second compound 0.316 µM, first compound 0.00949 µM
  viability, T/C: 69.8%
Second compound 0.316 µM, first compound 0.03 µM
  viability, T/C: 67.1%
Second compound 0.316 µM, first compound 0.0949 µM
  viability, T/C: 38.4%
Second compound 0.316 µM, first compound 0.3 µM
  viability, T/C: 22.2%
Second compound 0.316 µM, first compound 0.949 µM
  viability, T/C: 17.6%
Second compound 0.316 µM, first compound 3 µM
  viability, T/C: 8.16%
Second compound 1 µM, first compound 0.00949 µM
  viability, T/C: 67.9%
Second compound 1 µM, first compound 0.03 µM
  viability, T/C: 60%
Second compound 1 µM, first compound 0.0949 µM
  viability, T/C: 34%
Second compound 1 µM, first compound 0.3 µM
  viability, T/C: 19.6%
Second compound 1 µM, first compound 0.949 µM
  viability, T/C: 19.2%
Second compound 1 µM, first compound 3 µM
  viability, T/C: 7.9%
Second compound 3.16 µM, first compound 0.00949 µM
  viability, T/C: 74%
Second compound 3.16 µM, first compound 0.03 µM
  viability, T/C: 59%
Second compound 3.16 µM, first compound 0.0949 µM
  viability, T/C: 35.6%
Second compound 3.16 µM, first compound 0.3 µM
  viability, T/C: 23.3%
Second compound 3.16 µM, first compound 0.949 µM
  viability, T/C: 17.3%
Second compound 3.16 µM, first compound 3 µM
  viability, T/C: 11.7%
Second compound 10 µM, first compound 0.00949 µM
  viability, T/C: 73.5%
Second compound 10 µM, first compound 0.03 µM
  viability, T/C: 54.8%
Second compound 10 µM, first compound 0.0949 µM
  viability, T/C: 34.3%
Second compound 10 µM, first compound 0.3 µM
  viability, T/C: 27.5%
Second compound 10 µM, first compound 0.949 µM
  viability, T/C: 16.8%
Second compound 10 µM, first compound 3 µM
  viability, T/C: 11.7%

## Nc1ncn(C2CC(O)C(CO)O2)c(=O)n1 (stereo not given) + NC1CC1c1ccc(-c2cccc(O)c2)cc1
Second compound 0.1 µM
  IC50: 311 nM
Second compound 0.316 µM
  IC50: 143 nM
Second compound 1 µM
  IC50: 237 nM
Second compound 3.16 µM
  IC50: 227 nM
Second compound 10 µM
  IC50: 258 nM
Second compound 0.1 µM, first compound 0.00316 µM
  viability, T/C: 95.1%
Second compound 0.1 µM, first compound 0.01 µM
  viability, T/C: 90.3%
Second compound 0.1 µM, first compound 0.0316 µM
  viability, T/C: 79.2%
Second compound 0.1 µM, first compound 0.1 µM
  viability, T/C: 62.8%
Second compound 0.1 µM, first compound 0.316 µM
  viability, T/C: 49.7%
Second compound 0.1 µM, first compound 1 µM
  viability, T/C: 43.9%
Second compound 0.316 µM, first compound 0.00316 µM
  viability, T/C: 73.6%
Second compound 0.316 µM, first compound 0.01 µM
  viability, T/C: 74.5%
Second compound 0.316 µM, first compound 0.0316 µM
  viability, T/C: 67.6%
Second compound 0.316 µM, first compound 0.1 µM
  viability, T/C: 52.4%
Second compound 0.316 µM, first compound 0.316 µM
  viability, T/C: 44.9%
Second compound 0.316 µM, first compound 1 µM
  viability, T/C: 41%
Second compound 1 µM, first compound 0.00316 µM
  viability, T/C: 70.4%
Second compound 1 µM, first compound 0.01 µM
  viability, T/C: 70.9%
Second compound 1 µM, first compound 0.0316 µM
  viability, T/C: 62.8%
Second compound 1 µM, first compound 0.1 µM
  viability, T/C: 57%
Second compound 1 µM, first compound 0.316 µM
  viability, T/C: 47.9%
Second compound 1 µM, first compound 1 µM
  viability, T/C: 41.2%
Second compound 3.16 µM, first compound 0.00316 µM
  viability, T/C: 74.7%
Second compound 3.16 µM, first compound 0.01 µM
  viability, T/C: 57.7%
Second compound 3.16 µM, first compound 0.0316 µM
  viability, T/C: 68.5%
Second compound 3.16 µM, first compound 0.1 µM
  viability, T/C: 56.3%
Second compound 3.16 µM, first compound 0.316 µM
  viability, T/C: 45.4%
Second compound 3.16 µM, first compound 1 µM
  viability, T/C: 39.3%
Second compound 10 µM, first compound 0.00316 µM
  viability, T/C: 63.3%
Second compound 10 µM, first compound 0.01 µM
  viability, T/C: 73.7%
Second compound 10 µM, first compound 0.0316 µM
  viability, T/C: 69.9%
Second compound 10 µM, first compound 0.1 µM
  viability, T/C: 57.6%
Second compound 10 µM, first compound 0.316 µM
  viability, T/C: 49.7%
Second compound 10 µM, first compound 1 µM
  viability, T/C: 41.4%
